PMC12587545, “Noncytotoxic polymyxin derivatives enhance antibiotic action against multidrug-resistant Gram-negative bacteria” (Antimicrobial Agents and Chemotherapy, 2025)
Several values for one entry are separate records, joined by “and”; a condition that tells them apart may be missing. Equal values may be shown once. Entries after “also recorded” stand apart in the source; their conditions may differ.

Assays:
A. baumannii = experiment: Checkerboard assay (antibiotic potentiation); type: cell-based, Acinetobacter baumannii
E. coli = experiment: Checkerboard assay (antibiotic potentiation); type: cell-based, Escherichia coli; conditions: for Interpretation: antibiotic + compound 1; for MICantibiotic + compound: antibiotic MIC with 8 µg/mL (5 µM) compound 1; for MICantibiotic: antibiotic alone; for Potentiation: of antibiotic by 8 µg/mL (5 µM) compound 1
K. pneumoniae = experiment: Checkerboard assay (antibiotic potentiation); type: cell-based, Klebsiella pneumoniae; conditions: for MICantibiotic + compound: antibiotic MIC with 8 µg/mL (5 µM) compound 1; for MICantibiotic: antibiotic alone; for Potentiation: of antibiotic by 8 µg/mL (5 µM) compound 1
E. cloacae = experiment: Checkerboard assay (antibiotic potentiation); type: cell-based, Enterobacter cloacae; conditions: E. cloacae 121887 (colistin-resistant)
[1] = tested on: MDR Gram-negative bacteria clinical isolates; experiment: Checkerboard assay, summary over strains; type: cell-based; conditions: of all 14 clinical isolates; number (%)
P. aeruginosa 259-96916 = experiment: Time-kill kinetics assay
A. baumannii AB027 = experiment: Time-kill kinetics assay
Description: Bactericidal and bacteriostatic activity correspond to a ≥ 3 log10 and a < 3 log10 decrease in bacterial load after 24 h relative to the starting inoculum, respectively ([39]).
The time- and concentration-dependent killing of the antibiotic/compound combinations was assessed using the time-kill kinetics assay by following a previously described protocol ([27][–][29]). Bacterial culture grown overnight was diluted in phosphate-buffered saline (PBS) to 0.5 McFarland turbidity and was further diluted 1:50 in LB. Bacterial cultures treated with varying concentrations of antibiotic alone, compound alone, or the combination of antibiotic and compound were incubated in a shaking incubator at 250 rpm and at 37°C. At designated time points, 100 µL aliquots were taken from the culture tubes, serially diluted in PBS, and plated on LB agar plates. The bacterial colonies were then counted after incubation of the plates for 18 h at 37°C.

[2] = A. baumannii ATCC 17978, 0% FBS, zoliflodacin + compound 1
[3] = A. baumannii ATCC 17978, [Mg2+] 25 mM, zoliflodacin + compound 1
[4] = A. baumannii ATCC 17978, [Mg2+] 0.4–0.5 mM, zoliflodacin + compound 1
[5] = A. baumannii ATCC 17978, antibiotic + compound 1
[6] = E. coli 94393 (colistin-resistant)
[7] = E. coli 94474 (colistin-resistant)
[8] = K. pneumoniae 113250 (colistin-resistant)
[9] = K. pneumoniae 116381, antibiotic + compound 1
[10] = 0.5 µg/mL zoliflodacin + 8 µg/mL (5 µM) compound 1
[11] = 8 µg/mL zoliflodacin + 8 µg/mL (5 µM) compound 1
[12] = monotherapy at 8 µg/mL, LB, 37°C, up to 24 h
[13] = zoliflodacin + compound 1, both 8 µg/mL, after 24 h

Structure (SMILES): C[C@@H]1CN2c3c(cc4c(N5C(=O)OC[C@@H]5C)noc4c3F)CC3(C(=O)NC(=O)NC3=O)[C@H]2[C@H](C)O1 [Zoliflodacin]
- Interpretation (A. baumannii; A. baumannii AB031, antibiotic + compound 1): Synergy (FIC indices of ≤0.5 is synergistic)
- MICantibiotic + compound (A. baumannii; A. baumannii AB031, antibiotic MIC with 4 µg/mL (2 µM) compound 1): 4 µg/mL
- MICantibiotic (A. baumannii; A. baumannii AB031, antibiotic alone): 128 µg/mL
- Potentiation (A. baumannii; A. baumannii AB031, of antibiotic by 4 µg/mL (2 µM) compound 1): 32 fold
- Potentiation (A. baumannii; A. baumannii ATCC 17978, 0% FBS, of zoliflodacin by 4 µg/mL compound 1): ≥128-fold
- FIC index (A. baumannii; [2]): 0.258
- Interpretation (A. baumannii; [2]): Synergy (FIC indices of ≤0.5 is synergistic)
- MICantibiotic + compound (A. baumannii; A. baumannii ATCC 17978, 0% FBS, zoliflodacin MIC with 4 µg/mL compound 1): 0.031 µg/mL
- MICantibiotic (A. baumannii; A. baumannii ATCC 17978, 0% FBS, zoliflodacin alone): 4 µg/mL
- Potentiation (A. baumannii; A. baumannii ATCC 17978, 10% FBS, of zoliflodacin by 4 µg/mL compound 1): 32 fold
- Interpretation (A. baumannii; A. baumannii ATCC 17978, 10% FBS, zoliflodacin + compound 1): Synergy (FIC indices of ≤0.5 is synergistic)
- MICantibiotic + compound (A. baumannii; A. baumannii ATCC 17978, 10% FBS, zoliflodacin MIC with 4 µg/mL compound 1): 0.5 µg/mL
- MICantibiotic (A. baumannii; A. baumannii ATCC 17978, 10% FBS, zoliflodacin alone): 16 µg/mL
- Potentiation (A. baumannii; A. baumannii ATCC 17978, 25% FBS, of zoliflodacin by 4 µg/mL compound 1): 8 fold
- Interpretation (A. baumannii; A. baumannii ATCC 17978, 25% FBS, zoliflodacin + compound 1): Synergy (FIC indices of ≤0.5 is synergistic)
- MICantibiotic + compound (A. baumannii; A. baumannii ATCC 17978, 25% FBS, zoliflodacin MIC with 4 µg/mL compound 1): 2 µg/mL
- MICantibiotic (A. baumannii; A. baumannii ATCC 17978, 25% FBS, zoliflodacin alone): 16 µg/mL
- Potentiation (A. baumannii; A. baumannii ATCC 17978, 50% FBS, of zoliflodacin by 4 µg/mL compound 1): 2 fold
- Interpretation (A. baumannii; A. baumannii ATCC 17978, 50% FBS, zoliflodacin + compound 1): Additive (0.5 < × ≤ 4 is additive)
- MICantibiotic + compound (A. baumannii; A. baumannii ATCC 17978, 50% FBS, zoliflodacin MIC with 4 µg/mL compound 1): 32 µg/mL
- MICantibiotic (A. baumannii; A. baumannii ATCC 17978, 50% FBS, zoliflodacin alone): 64 µg/mL
- Potentiation (A. baumannii; A. baumannii ATCC 17978, [Mg2+] 25 mM, of zoliflodacin by 4 µg/mL compound 1): ≥64-fold
- FIC index (A. baumannii; [3]): x < 0.063
- Interpretation (A. baumannii; [3]): Synergy (FIC indices of ≤0.5 is synergistic)
- MICantibiotic + compound (A. baumannii; A. baumannii ATCC 17978, [Mg2+] 25 mM, zoliflodacin MIC with 4 µg/mL compound 1): 4 µg/mL
- MICantibiotic (A. baumannii; A. baumannii ATCC 17978, [Mg2+] 25 mM, zoliflodacin alone): >32 µg/mL
- Potentiation (A. baumannii; A. baumannii ATCC 17978, [Mg2+] 0.4–0.5 mM, of zoliflodacin by 4 µg/mL compound 1): ≥128-fold
- FIC index (A. baumannii; [4]): 0.258
- Interpretation (A. baumannii; [4]): Synergy (FIC indices of ≤0.5 is synergistic)
- MICantibiotic + compound (A. baumannii; A. baumannii ATCC 17978, [Mg2+] 0.4–0.5 mM, zoliflodacin MIC with 4 µg/mL compound 1): 0.031 µg/mL
- MICantibiotic (A. baumannii; A. baumannii ATCC 17978, [Mg2+] 0.4–0.5 mM, zoliflodacin alone): 4 µg/mL
- FIC index (A. baumannii; [5]): 0.258
- Interpretation (A. baumannii; [5]): Synergy (FIC indices of ≤0.5 is synergistic)
- Interpretation (A. baumannii; A. baumannii ATCC 17978, antibiotic + compound 3): Additive (0.5 < × ≤ 4 is additive)
- MICantibiotic + compound (A. baumannii; A. baumannii ATCC 17978, antibiotic MIC with 8 µg/mL (5 µM) compound 3): 2 µg/mL
- MICantibiotic (A. baumannii; A. baumannii ATCC 17978, antibiotic alone): 2 µg/mL and 4 µg/mL
- Potentiation (A. baumannii; A. baumannii ATCC 17978, of antibiotic by 8 µg/mL (5 µM) compound 3): 1 fold
- Interpretation (E. coli; [6]): Synergy (FIC indices of ≤0.5 is synergistic)
- MICantibiotic + compound (E. coli; [6]): 2 µg/mL
- MICantibiotic (E. coli; [6]): 64 µg/mL
- Potentiation (E. coli; [6]): 32 fold
- Interpretation (E. coli; [7]): Synergy (FIC indices of ≤0.5 is synergistic)
- MICantibiotic + compound (E. coli; [7]): 4 µg/mL
- MICantibiotic (E. coli; [7]): 64 µg/mL
- Potentiation (E. coli; [7]): 16 fold
- Interpretation (K. pneumoniae; K. pneumoniae 113250 (colistin-resistant), antibiotic + compound 1): Synergy (FIC indices of ≤0.5 is synergistic)
- MICantibiotic + compound (K. pneumoniae; [8]): 4 µg/mL
- MICantibiotic (K. pneumoniae; [8]): 128 µg/mL
- Potentiation (K. pneumoniae; [8]): 32 fold
- FIC index (K. pneumoniae; [9]): 0.063
- Interpretation (K. pneumoniae; [9]): Synergy (FIC indices of ≤0.5 is synergistic)
- MICantibiotic + compound (K. pneumoniae; K. pneumoniae 116381): 0.25 µg/mL
- MICantibiotic (K. pneumoniae; K. pneumoniae 116381): 256 µg/mL
- Potentiation (K. pneumoniae; K. pneumoniae 116381): ≥512-fold
- Interpretation (E. cloacae; antibiotic + compound 1): Synergy (FIC indices of ≤0.5 is synergistic)
- MICantibiotic + compound (E. cloacae; antibiotic MIC with 8 µg/mL (5 µM) compound 1): 4 µg/mL
- MICantibiotic (E. cloacae; antibiotic alone): 32 µg/mL
- Potentiation (E. cloacae; of antibiotic by 8 µg/mL (5 µM) compound 1): 8 fold
- clinical isolates in which the antibiotic was synergized by compound 1 [1]: 12 (86%) strains
- time-kill outcome (P. aeruginosa 259-96916; [10]): bacteriostatic effect
- time-kill outcome (P. aeruginosa 259-96916; [11]): complete sterilization was achieved after 24 h
- time-kill outcome (P. aeruginosa 259-96916; [12]): growth curve similar to that of untreated bacteria
- decrease in bacterial load from the starting inoculum and from the most active monotherapy (P. aeruginosa 259-96916; [13]): ≥ 2 log10
- time-kill outcome (A. baumannii AB027; [10]): appeared to eradicate the bacteria at 8 h; also recorded: slight regrowth after 24 h
- time-kill outcome (A. baumannii AB027; [11]): appeared to eradicate the bacteria at 8 h
- time-kill outcome (A. baumannii AB027; monotherapy at 0.5 µg/mL): growth curves similar to that of untreated bacteria
- time-kill outcome (A. baumannii AB027; [12]): initially decreased bacterial loads, regrowth occurred after 8 h
- decrease in bacterial load from the starting inoculum and from the most active monotherapy (A. baumannii AB027; [13]): ≥ 2 log10
